What all share (format): cell-based
In experiment [1] the target is T1, GPR68 (Homo sapiens, UniProt Q15743). Briefly: GloSensor cAMP assay (Gs), allosteric operational model fitting. The arrangement: expressed in transfected cells; host or cells: HEK293T, transient (PEI), co-transfected with GloSensor cAMP plasmid. The method, then: GPR68-mediated cAMP signaling was measured using GloSensor cAMP assays as published previously ([Huang et al., 2015], [Yu et al., 2019]) with modifications as indicated below. Calcium- and magnesium-free HBSS was supplemented with different organic buffer reagents for different pH solutions, 20 mM 2-(N-morpholino)ethanesulfonic acid (MES, Alfa Aesar) for pH 6.00 – 6.70, 20 mM 4-(2-hydroxyethyl)-1-piperazineethanesulfonic acid (HEPES, Fisher) for pH 6.80 – 8.20, and 20 mM (tris(hydroxymethyl)methylamino)propanesulfonic acid (TAPS) for pH 8.30 – 8.60. The phosphodiesterase (PDE) inhibitor Ro 20-1724 (10 μM final, Cayman Chemical) was included in pH buffers to eliminate potential effect of PDE […]. HEK293T cells were transfected with a modified polyethylenimine (PEI, Polysciences) transfection method ([Longo et al., 2013]). For a 15-cm dish of HEK293T cells with 25 mL growth medium, 8 μg receptor DNA and 8 μg GloSensor DNA (Promega) were mixed in 1 mL of Opti-MEM medium followed by addition of 80 μL PEI reagents. The mixture was added to cells after 20 min incubation at room temperature. Overnight transfected cells were plated in poly-L-lysine (Sigma) coated 384-well white clear bottom plates (Greiner Bio-One, #781098) using DMEM (Corning) + 1% dialyzed FBS (Omega Scientific) for at least 6 h (up to 24 h). Cells were removed of medium before receiving 20 μL/well of 3.5 mM luciferin (Goldbio) prepared in assay buffer (HBSS, 20 mM TAPS, pH 8.40, 10 μM Ro 20-1724) for 1 h at 37°C. Luciferin loading solutions were removed and premixed drug solutions at desired pH conditions were added to cells (25 μL/well). Luminescence was measured 25-30 min after drug application. Results were normalized (basal and maximum responses in the absence of modulator were set to be 0 and 100%) and pooled for analysis using GraphPad Prism.
All of the other parameters, including allosteric affinity cooperativity (α), allosteric modulator binding affinity KB, orthosteric agonist (protons) efficacy τA, system maximal response, and slope factor n were all globally shared for all datasets for each modulator. […] We therefore used an allosteric index, log(αβ/KB) ([Kenakin, 2017a]), which contains both allosteric binding affinity and cooperativity, to quantify the overall allosteric activity.
Target sequence in this assay (Q15743 whole entry): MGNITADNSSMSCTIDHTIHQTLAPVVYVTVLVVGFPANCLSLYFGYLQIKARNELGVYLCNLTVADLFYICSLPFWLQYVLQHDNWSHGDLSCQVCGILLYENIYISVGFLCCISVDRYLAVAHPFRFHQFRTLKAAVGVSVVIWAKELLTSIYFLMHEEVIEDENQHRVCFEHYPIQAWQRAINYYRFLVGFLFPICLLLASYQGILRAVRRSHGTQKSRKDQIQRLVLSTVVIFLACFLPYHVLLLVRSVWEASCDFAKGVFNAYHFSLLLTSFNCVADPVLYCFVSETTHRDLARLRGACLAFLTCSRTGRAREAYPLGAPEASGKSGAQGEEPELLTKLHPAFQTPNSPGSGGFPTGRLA
(In general: cAMP levels reflect the balance of adenylyl cyclase and phosphodiesterase activity.)

Experiment [2] addresses T1, GPR68. Briefly: Real-time receptor internalization (TR-FRET), concentration-response. The arrangement: hIL-2Ra signal peptide (N); expressed in transfected cells. The settings on record: GPR68, mean, SEM and n. Put shortly: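 Doxycycline-induced SNAP-tagged receptor cells had surface receptors labelled with Lumi4-Tb and fluorescein-O-acetic acid added. TR-FRET internalization after peptide addition was recorded for 60 min at 37°C (ex 340, em 520/615 nm). Area under the curve, normalized to plate average, gave concentration-response curves.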
Target sequence in this assay (Q15743 2-365 limits assumed): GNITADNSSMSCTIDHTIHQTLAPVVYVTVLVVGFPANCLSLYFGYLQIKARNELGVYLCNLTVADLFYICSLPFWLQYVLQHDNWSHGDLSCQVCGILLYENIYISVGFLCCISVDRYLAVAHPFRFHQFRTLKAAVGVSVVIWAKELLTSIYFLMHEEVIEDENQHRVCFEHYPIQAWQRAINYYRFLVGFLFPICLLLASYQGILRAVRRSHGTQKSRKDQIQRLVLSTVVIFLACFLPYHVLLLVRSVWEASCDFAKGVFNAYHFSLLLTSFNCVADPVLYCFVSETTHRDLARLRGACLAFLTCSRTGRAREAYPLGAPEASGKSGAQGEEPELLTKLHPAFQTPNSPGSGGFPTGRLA
Background: Time-resolved FRET reads energy transfer from a long-lived donor to a nearby acceptor.

The target of another experiment is T2, HA-OGR1 (GPR68) (Homo sapiens, UniProt Q15743).
T2 construct: HA; expressed in transfected cells
T2 sequence (Q15743 whole entry): as the sequence (Q15743 whole entry) above
In words: Ca2+ mobilization assay (Fluo-4). The settings on record: GPR68, data from resynthesized peptide, mean, SEM and n; for Emax: read-out: Emax, Ca2+ mobilization (% iono); for EC50: read-out: pEC50, Ca2+ mobilization (% iono) (converted). As to the method:
Peptide-dependent Ca^2+ mobilization responses were measured in HEK293 stable cell lines (HA-OGR1 (GPR68) and vector pcDNA) ([Saxena et al., 2012]) that were seeded in 96-well plates (1 × 10^5 cells/well) and cultured at 37°C with 5% CO2 to near confluence in DMEM with 10% FBS (Corning). Six hours prior to assay, medium was changed to pH 8.0 or pH 7.4 HAM’s F12 Nutrient Mixture (GIBCO) without FBS and transferred to a 37°C incubator without CO2. One hour prior to stimulation, cells were incubated in pH 8.0 or pH 7.4 HBSS with Ca^2+ and Mg^2+ (GIBCO), supplemented with 15 mM HEPES, 2 μM Fluo-4 AM (Invitrogen) and 1.5 mM probenecid ([…] to prevent Fluo-4 efflux) as described previously ([Pera et al., 2018]). Indicated peptides were pipetted using an automated system and emission signal was recorded at 525 nm after excitation at 485 nm using Flex Station III (Molecular Devices). Ca^2+ mobilization responses were determined by subtracting basal fluorescence from the net peak of agonist-induced fluorescence. Ionomycin (1 μM) was used to calculate the maximum Ca^2+ signal to normalize peptide-mediated responses.
In general terms: Calcium assays in cells follow changes in intracellular calcium, usually with a dye or a luminescent sensor.

Where [3] appears, read: GPR68, pH 7.4, tested as PAM, data from resynthesized peptide, mean, SEM and n.

Broadly, the Emax is the greatest response seen or fitted, relative to the assay's reference.

Molecules are shown by their SMILES. Positions of bridges follow the written chain, without caps; N, C: chain ends. Residues, ends and D or L forms follow the SMILES beside them.

For `CC[C@H](C)[C@H](NC(=O)[C@H](CCCNC(=N)N)NC(=O)[C@H](C)NC(=O)CNC(=O)[C@H](CCCCN)NC(=O)[C@H](CCCNC(=N)N)NC(=O)[C@@H](NC(=O)[C@H](C)NC(=O)[C@@H]1CSSC[C@H](NC(=O)[C@H](CCSC)NC(=O)[C@@H]2CCCN2C(=O)[C@@H](NC(=O)[C@H](CCC(N)=O)NC(=O)CNC(=O)[C@@H](N)Cc2ccc(O)cc2)C(C)C)C(=O)N[C@@H](CC(=O)O)C(=O)N[C@@H](C)C(=O)NCC(=O)N[C@@H](CCC(=O)O)C(=O)N[C@@H](CCC(N)=O)C(=O)N1)C(C)C)C(N)=O` [CART(42-89)_(9-28)] (H-YGQVPMCDAGEQCAVRKGARI-NH2; disulfide 7-13; N-terminus assumed), at GPR68 [1] (setting [3]), the “Emax, cAMP (fold over basal, pH 7.4)” value stood at 25.2 fold over basal. Moreover, the EC50 on GPR68 [1] (GPR68, pH 7.4, tested as PAM, data from resynthesized peptide, mean, SEM and n, read-out: pEC50, cAMP (fold over basal, pH 7.4) (converted)) was 4.57 µM; on GPR68 [2] (read-out: pEC50, Internalization (AUC) (converted)), 3.55 µM; on HA-OGR1 (GPR68), 3310 nM. For the same compound, the “Emax, Internalization (AUC)” value at GPR68 [2] stood at 9.4. Moreover, the Emax at HA-OGR1 (GPR68) worked out at 79.3%.

`CC(C)C[C@H](NC(=O)[C@@H]1CCCN1C(=O)[C@H](Cc1ccccc1)NC(=O)[C@H](C)NC(=O)[C@H](CCC(=O)O)NC(=O)[C@H](C)NC(=O)[C@H](CO)NC(=O)[C@H](CCC(=O)O)NC(=O)[C@H](CC(N)=O)NC(=O)[C@H](CCC(=O)O)NC(=O)[C@H](C)NC(=O)[C@@H](NC(=O)[C@H](CC(N)=O)NC(=O)[C@@H]1CCCN1C(=O)[C@H](Cc1ccc(O)cc1)NC(=O)[C@@H](NC(=O)[C@H](CCCCN)NC(=O)[C@@H](NC(=O)[C@@H]1CCCN1C(=O)[C@H](CCCNC(=N)N)NC(=O)[C@@H](N)CCCNC(=N)N)C(C)C)C(C)C)C(C)C)C(=O)N[C@@H](CCC(=O)O)C(=O)N[C@@H](Cc1ccccc1)C(=O)O` [Corticotropin_(17-40)] (H-RRPVKVYPNVAENESAEAFPLEF-OH; N-terminus and C-terminus assumed) had an EC50 at GPR68 [1] of 7.41 µM. Also, the “Emax, cAMP (fold over basal, pH 7.4)” value at GPR68 [1] (setting [3]) turned out to be 24.2 fold over basal. Further, at GPR68 [2], the “Emax, Internalization (AUC)” value amounted to 4.7 and the “pEC50, Internalization (AUC)” value is on record as “Response >1uM”. Moreover, at HA-OGR1 (GPR68), the Emax turned out to be 63.3% and the EC50 is 1820 nM.

The record behind these values is PMC6838683, “Discovery of Human Signaling Systems: Pairing Peptides to G Protein-Coupled Receptors” (Cell, 2019).
